# In patent US20040132807A1, “Aurones as telomerase inhibitors” (priority 2001, published 2004):
# Biological target: T1, telomerase enzyme (Homo sapiens, UniProt O14746)
# T1 construct: telomerase enzyme diluted in a buffer
# Assay: Flash Plate-based telomerase activity assay
# Assay type: biochemical
# Details: two hours incubation at 37°, biotinylated oligo primer, radiolabeled probe, streptavidin flash plate; read-out: IC50 (telomerase inhibitory activity)
# Procedure: The telomerase activity of the compounds has been evaluated using a Flash Plate-based assay.
# The assay mixture is constituted of:
# telomerase enzyme diluted in a buffer, the composition of which has been selected to maintain the enzyme activity stable along the duration of the assay.
# dNTPs, deoxynucleotides 5′-triphosphate.
# biotinylated oligo as primer.
# increasing concentrations of test compounds/positive control.
# After two hours of incubation at 37° degrees the telomeric repeats added by telomerase are evaluated by hybridization in solution with a 3′-radioactive labeled short oligonucleotide probe. The extent of hybridization is then quantitated by transferring the reaction mixture in a streptavidin-coated flash plate, where the binding between biotin and streptavidin occurs. The telomerase activity is proportional to the radioactivity measured and the inhibitory activity of the compounds is evaluated as IC50 using the Sigma Plot fit program.
# The IC50 values for the compounds of the present invention were determined according to the above-described method.
# T1 sequence (O14746 whole entry): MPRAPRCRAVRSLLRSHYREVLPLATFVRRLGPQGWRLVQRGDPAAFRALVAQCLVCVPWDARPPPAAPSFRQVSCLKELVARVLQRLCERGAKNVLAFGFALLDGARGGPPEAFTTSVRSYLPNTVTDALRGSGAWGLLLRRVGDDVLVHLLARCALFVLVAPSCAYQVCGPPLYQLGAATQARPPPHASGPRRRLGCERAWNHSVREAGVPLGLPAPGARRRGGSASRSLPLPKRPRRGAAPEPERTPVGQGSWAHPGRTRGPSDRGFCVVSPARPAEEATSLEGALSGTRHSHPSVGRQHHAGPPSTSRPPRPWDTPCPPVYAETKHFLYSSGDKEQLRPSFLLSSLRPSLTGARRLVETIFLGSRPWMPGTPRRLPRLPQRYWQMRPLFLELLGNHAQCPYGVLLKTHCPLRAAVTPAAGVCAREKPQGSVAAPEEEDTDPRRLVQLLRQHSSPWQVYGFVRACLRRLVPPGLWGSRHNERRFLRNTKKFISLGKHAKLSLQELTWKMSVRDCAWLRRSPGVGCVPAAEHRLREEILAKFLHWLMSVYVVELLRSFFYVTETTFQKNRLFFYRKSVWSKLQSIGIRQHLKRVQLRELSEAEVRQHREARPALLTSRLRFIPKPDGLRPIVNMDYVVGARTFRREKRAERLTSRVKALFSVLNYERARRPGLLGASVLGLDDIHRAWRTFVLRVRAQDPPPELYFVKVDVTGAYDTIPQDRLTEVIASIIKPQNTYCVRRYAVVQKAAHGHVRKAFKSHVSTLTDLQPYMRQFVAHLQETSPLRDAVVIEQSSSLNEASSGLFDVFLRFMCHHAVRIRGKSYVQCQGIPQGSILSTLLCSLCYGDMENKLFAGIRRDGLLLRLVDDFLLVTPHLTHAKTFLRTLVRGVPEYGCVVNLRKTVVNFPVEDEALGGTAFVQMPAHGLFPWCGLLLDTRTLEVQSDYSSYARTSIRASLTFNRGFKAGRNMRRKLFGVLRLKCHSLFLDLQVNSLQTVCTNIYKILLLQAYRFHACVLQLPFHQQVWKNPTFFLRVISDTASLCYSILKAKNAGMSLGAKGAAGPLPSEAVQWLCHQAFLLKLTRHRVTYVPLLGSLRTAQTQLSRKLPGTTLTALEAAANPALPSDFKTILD
row,IC50 [µM],SMILES
1,0.3,"O=C1C(=Cc2ccc(O)c(O)c2)Oc2c1ccc(O)c2O [Compound 1, 2-(3,4-dihydroxybenzylidene)-6,7-dihydroxy-1-benzofuran-3(2H)-one]"
2,13,"O=C1C(=Cc2ccc3c(c2)OCO3)Oc2c1ccc(O)c2O [Compound 2, 2-(1,3-benzodioxol-5-ylmethylene)-6,7-dihydroxy-1-benzofuran-3(2H)-one]"
3,11,"COc1ccc(C=C2Oc3c(ccc(O)c3O)C2=O)cc1OC [Compound 3, 2-(3,4-dimethoxybenzylidene)-6,7-dihydroxy-1-benzofuran-3(2H)-one]"
4,1.5,"O=C1C(=Cc2ccc(O)cc2O)Oc2c1ccc(O)c2O [Compound 4, 2-(2,4-dihydroxybenzylidene)-6,7-dihydroxy-1-benzofuran-3(2H)-one]"
5,8,"O=C1C(=Cc2ccc(Cl)c(Cl)c2)Oc2c1ccc(O)c2O [Compound 5, 2-(3,4-dichlorobenzylidene)-6,7-dihydroxy-1-benzofuran-3(2H)-one]"
6,7,"O=C1c2ccc(O)c(O)c2OC1Cc1ccc(O)c(O)c1 (stereo not drawn) [Compound 89, 2-(3,4-dihydroxybenzyl)-6,7-dihydroxy-1-benzofuran-3(2H)-one]"
